Test results as given in ChEMBL document CHEMBL4325880, “Design, synthesis and biological evaluation of novel zanamivir derivatives as potent neuraminidase inhibitors” (Bioorg Med Chem Lett, 2018).

Key:
Influenza A virus = test: Antiviral activity against Influenza A virus (A/WSN/1933(H1N1)) infected in MDCK cells assessed as reduction in virus-induced cytopathic effect measured everyday; type: functional, organism-based
[1] = Selectivity index, ratio of CC50 for MDCK cells to IC50 for Influenza A virus (A/WSN/1933(H1N1)); type: toxicity; settings: dog, read-out: Ratio CC50/IC50
[2] = Cytotoxicity against MDCK cells assessed as reduction in cell viability after 72 hrs by CellTiter-Glo assay; type: cell-based, Canis lupus familiaris; settings: dog
[3] = Inhibition of Clostridium neuraminidase preincubated for 2 mins followed by neuraminidase fluorescent addition and measured after 30 mins by fluorescence assay

Work on `CC(=O)N[C@H]1[C@H]([C@H](O)[C@H](O)CO)OC(C(=O)O)=C[C@@H]1NC(=N)NC(=O)CSc1ccc2ccccc2c1` yielded an IC50 (Influenza A virus; read-out: pIC50 (converted)) of 20.1 nM.
`COc1cc(CCC(=O)NC(=N)N[C@H]2C=C(C(=O)O)O[C@@H]([C@H](O)[C@H](O)CO)[C@@H]2NC(C)=O)cc(OC)c1OC` showed an IC50 (Influenza A virus; read-out: pIC50 (converted)) of 239 nM.
`CC(=O)N[C@H]1[C@H]([C@H](O)[C@H](O)CO)OC(C(=O)O)=C[C@@H]1NC(=N)NC(=O)Cc1ccc2ccccc2c1` gave an IC50 (Influenza A virus; read-out: pIC50 (converted)) of 55 nM.
In the case of `CC(=O)N[C@H]1[C@H]([C@H](O)[C@H](O)CO)OC(C(=O)O)=C[C@@H]1NC(=N)NC(=O)c1ccc([N+](=O)[O-])cc1`, the IC50 (Influenza A virus; read-out: pIC50 (converted)) is reported as 152 nM.
For `COc1ccccc1CCC(=O)NC(=N)N[C@H]1C=C(C(=O)O)O[C@@H]([C@H](O)[C@H](O)CO)[C@@H]1NC(C)=O`, the IC50 (Influenza A virus; read-out: pIC50 (converted)) was 196 nM.
With `CC(=O)N[C@H]1[C@H]([C@H](O)[C@H](O)CO)OC(C(=O)O)=C[C@@H]1NC(=N)NC(=O)CC12CC3CC(CC(C3)C1)C2` the IC50 (Influenza A virus; read-out: pIC50 (converted)) was 275 nM.
Work on `CC(=O)N[C@H]1[C@H]([C@H](O)[C@H](O)CO)OC(C(=O)O)=C[C@@H]1NC(=N)NC(=O)CC(C)CCC=C(C)C` (stereo not given in full) yielded an IC50 (Influenza A virus; read-out: pIC50 (converted)) of 541 nM.
`CC(=O)N[C@H]1[C@H]([C@H](O)[C@H](O)CO)OC(C(=O)O)=C[C@@H]1NC(=N)NC(=O)CCc1ccccc1C(F)(F)F` showed an IC50 (Influenza A virus; read-out: pIC50 (converted)) of 332 nM.
`CC(=O)N[C@H]1[C@H]([C@H](O)[C@H](O)CO)OC(C(=O)O)=C[C@@H]1NC(=N)NC(=O)CCc1ccc2ccccc2c1` gave an IC50 (Influenza A virus; read-out: pIC50 (converted)) of 74.8 nM.
For `CC(=O)N[C@H]1[C@H]([C@H](O)[C@H](O)CO)OC(C(=O)O)=C[C@@H]1NC(=N)NC(=O)CCCCC1CCCCC1`, the IC50 (Influenza A virus; read-out: pIC50 (converted)) was 260 nM.
Work on `CC(=O)N[C@H]1[C@H]([C@H](O)[C@H](O)CO)OC(C(=O)O)=C[C@@H]1NC(=N)NCCSc1ccccc1` yielded an IC50 (Influenza A virus; read-out: pIC50 (converted)) of 39400 nM.
With `CC(=O)N[C@H]1[C@H]([C@H](O)[C@H](O)CO)OC(C(=O)O)=C[C@@H]1NC(=N)NC(=O)CCc1ccccc1` the IC50 (Influenza A virus; read-out: pIC50 (converted)) was 203 nM.
In the case of `CC(=O)N[C@H]1[C@H]([C@H](O)[C@H](O)CO)OC(C(=O)O)=C[C@@H]1NC(=N)NC(=O)CCc1ccc(N)cc1`, the IC50 (Influenza A virus; read-out: pIC50 (converted)) is reported as 176 nM.
`CCC(C)C(=O)NC(=N)N[C@H]1C=C(C(=O)O)O[C@@H]([C@H](O)[C@H](O)CO)[C@@H]1NC(C)=O` (stereo not given in full) showed an IC50 (Influenza A virus; read-out: pIC50 (converted)) of 774 nM.
With `CC(=O)N[C@H]1[C@H]([C@H](O)[C@H](O)CO)OC(C(=O)O)=C[C@@H]1NC(=N)NC(=O)CCCc1ccc(N)cc1` the IC50 (Influenza A virus; read-out: pIC50 (converted)) was 421 nM.
Molecule `CC(=O)N[C@H]1[C@H]([C@H](O)[C@H](O)CO)OC(C(=O)O)=C[C@@H]1NC(=N)NC(=O)CCCCCc1ccccc1` has an IC50 (Influenza A virus; read-out: pIC50 (converted)) of 233 nM.
`CC(=O)N[C@H]1[C@H]([C@H](O)[C@H](O)CO)OC(C(=O)O)=C[C@@H]1NC(=N)NC(=O)CCC1CCOC1` (stereo not given in full) showed an IC50 (Influenza A virus; read-out: pIC50 (converted)) of 1200 nM.
With `COc1ccccc1CC(=O)NC(=N)N[C@H]1C=C(C(=O)O)O[C@@H]([C@H](O)[C@H](O)CO)[C@@H]1NC(C)=O` the IC50 (Influenza A virus; read-out: pIC50 (converted)) was 209 nM.
`CC(=O)N[C@H]1[C@H]([C@H](O)[C@H](O)CO)OC(C(=O)O)=C[C@@H]1NC(=N)NC(=O)CSc1ccccc1` gave an IC50 (Influenza A virus; read-out: pIC50 (converted)) of 189 nM.
With `CC(=O)N[C@H]1[C@H]([C@H](O)[C@H](O)CO)OC(C(=O)O)=C[C@@H]1NC(=N)NC(=O)/C=C/c1cc(F)cc(F)c1` the IC50 (Influenza A virus; read-out: pIC50 (converted)) was 166 nM.
With `CC(=O)N[C@H]1[C@H]([C@H](O)[C@H](O)CO)OC(C(=O)O)=C[C@@H]1NC(=N)NC(=O)CCc1ccccc1Br` the IC50 (Influenza A virus; read-out: pIC50 (converted)) was 134 nM.
Work on `CC(=O)N[C@H]1[C@H]([C@H](O)[C@H](O)CO)OC(C(=O)O)=C[C@@H]1NC(=N)NC(=O)Cc1ccccc1` yielded an IC50 (Influenza A virus; read-out: pIC50 (converted)) of 46 nM.
Molecule `CC(=O)N[C@H]1[C@H]([C@H](O)[C@H](O)CO)OC(C(=O)O)=C[C@@H]1NC(=N)NC(=O)Cc1cccc2ccccc12` has an IC50 (Influenza A virus; read-out: pIC50 (converted)) of 98.4 nM.
In the case of `CC(=O)N[C@H]1[C@H]([C@H](O)[C@H](O)CO)OC(C(=O)O)=C[C@@H]1NC(=N)NC(=O)CCc1ccccc1C`, the IC50 (Influenza A virus; read-out: pIC50 (converted)) is reported as 462 nM.
With `CC(=O)N[C@H]1[C@H]([C@H](O)[C@H](O)CO)OC(C(=O)O)=C[C@@H]1NC(=N)NC(=O)CCCOc1ccccc1` the IC50 (Influenza A virus; read-out: pIC50 (converted)) was 397 nM.
Work on `CC(=O)N[C@H]1[C@H]([C@H](O)[C@H](O)CO)OC(C(=O)O)=C[C@@H]1NC(=N)NC(=O)CCCCCCCCCCOc1ccccc1` yielded an IC50 (Influenza A virus; read-out: pIC50 (converted)) of 203 nM.
`CC(=O)N[C@H]1[C@H]([C@H](O)[C@H](O)CO)OC(C(=O)O)=C[C@@H]1NC(=N)NC(=O)Cc1ccc(F)cc1` showed a selectivity ratio [1] greater than 149, a CC50 at 72 h [2] greater than 100 µM and an IC50 (Influenza A virus; read-out: IC50) of 670 nM. For the same molecule, the IC50 [3] was 35.4 µM.
With `CC(=O)N[C@H]1[C@H]([C@H](O)[C@H](O)CO)OC(C(=O)O)=C[C@@H]1NC(=N)NCCc1ccc2ccccc2c1` the IC50 (Influenza A virus; read-out: pIC50 (converted)) was 34700 nM.
`CC(=O)N[C@H]1[C@H]([C@H](O)[C@H](O)CO)OC(C(=O)O)=C[C@@H]1NC(=N)NC(=O)CCOc1ccccc1` gave an IC50 (Influenza A virus; read-out: pIC50 (converted)) of 180 nM.
With `CC(=O)N[C@@H]1C(NC(=N)NC(=O)c2ccc(-c3ccc(O)cc3)cc2)C=C(C(=O)O)O[C@H]1[C@H](O)C(O)CO` (single isomer, unassigned) the selectivity ratio [1] was greater than 14, the CC50 at 72 h [2] was greater than 100 µM and the IC50 (Influenza A virus; read-out: IC50) was 6950 nM. It also gave an IC50 [3] of 97.5 µM.
With `CC(=O)N[C@H]1[C@H]([C@H](O)[C@H](O)CO)OC(C(=O)O)=C[C@@H]1NC(=N)N` [ZANAMIVIR] the selectivity ratio [1] was greater than 115, the CC50 at 72 h [2] was greater than 100 µM and the IC50 (Influenza A virus; read-out: IC50) was 873 nM. It also gave an IC50 [3] of 130 µM.
